Data: patent US10227346B2, “Methyl- and trifluoromethyl-substituted pyrrolopyridine modulators of RORC2 and methods of use therof” (Pfizer Inc., priority 2014, dated 2019)

Each compound was assayed on IL-17 production from human Th17 cells (assay: IL-17 production from human Th17 cells). Settings: IL-17A in supernatant by ELISA after 6 days, human CD4+ T cells under Th17 differentiation.
Type: cell-based
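Further: purified human CD4+ T cells activated with anti-CD3 plus anti-CD28 and a Th17-inducing cytokine cocktail, with compound at serial concentrations versus no compound.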

Row | SMILES | IC50
1 | Cc1c(NC(=O)c2cccc(C#N)c2)cnc2c1c(C1CCN(C(=O)c3cccc4c3CCC4)CC1)cn2C [Example 34, 3-cyano-N-(3-(1-(2,3-dihydro-1H-indene-4-carbonyl)piperidin-4-yl)-1,4-dimethyl-1H-pyrrolo[2,3-b]pyridin-5-yl)benzamide] | 9.5 nM
2 | CC(C)C(=O)N1C[C@H]2CC[C@@H](C1)[C@@H]2c1cn(C)c2ncc(NC(=O)c3cccc(C#N)c3)c(C(F)(F)F)c12 [Example 77, 3-cyano-N-(3-((1R,5S,8r)-3-isobutyryl-3-azabicyclo[3.2.1]octan-8-yl)-1-methyl-4-(trifluoromethyl)-1H-pyrrolo[2,3-b]pyridin-5-yl)benzamide] | 8.9 nM
3 | Cn1cc(C2CCN(C(=O)[C@H]3CCCS3)CC2)c2c(C(F)(F)F)c(NC(=O)c3cccc(C#N)c3)cnc21 (single isomer, unassigned) [Example 28] | 118 nM

The remaining lines, values ahead:

Row | IC50 | SMILES
4 | 34.9 nM | Cc1c(NC(=O)c2cccc(C#N)c2)cnc2c1c([C@@H]1CCN(C(=O)C(C)C3CC3)C[C@@H]1C)cn2C (stereo partly drawn) [Example 86, 3-cyano-N-(3-((3R,4R)-1-(2-cyclopropylpropanoyl)-3-methylpiperidin-4-yl)-1,4-dimethyl-1H-pyrrolo[2,3-b]pyridin-5-yl)benzamide]
5 | 14.7 nM | COc1ccc(C(=O)Nc2cnc3c(c(C4[C@@H]5CC[C@H]4CN(C(=O)C4CCCC4)C5)cn3C)c2C)cc1C#N (stereo partly drawn) [Example 99, 3-cyano-N-(3-((1R,5S,8r)-3-(cyclopentanecarbonyl)-3-azabicyclo[3.2.1]octan-8-yl)-1,4-dimethyl-1H-pyrrolo[2,3-b]pyridin-5-yl)-4-methoxybenzamide]
6 | 32.1 nM | Cc1c(NC(=O)c2cccc(C#N)c2)cnc2c1c(C1CCN(C(=O)CC(C)C)CC1)cn2C [Example 109, 3-cyano-N-(1,4-dimethyl-3-(1-(3-methylbutanoyl)piperidin-4-yl)-1H-pyrrolo[2,3-b]pyridin-5-yl)benzamide]
